Results as given in US20200316122A1, “METHODS OF PRODUCING T CELL POPULATIONS USING P38 MAPK INHIBITORS” (The United States of America,as represented by the …, priority 2017, published 2020).

Experiments:
[1] = test system: Mouse T cells; assay: mouse T cells stimulated and expanded 5 days with Birb796: gamma H2AX, cell counts, CD44/CD62L; format: cell-based; details: mouse T cells expanded 5 days in vitro; with increases in the dosage of p38i
Method: Mouse T cells were stimulated and the numbers of cells were expanded for 5 days in vitro in the presence of the p38 inhibitor Birb796. The percentages of cells with high levels of gamma H2AX, the percentages of cell counts, and the expression of CD44 and CD62L were measured. As shown in FIGS. 4C-4F, with increases in the dosage of p38 inhibitor […]), the DNA damage in cells was reduced and the cell counts and percentage of CD62L+ cells were increased.

[2] = test system: Mouse T cells; assay: RNA extraction and qPCR gene expression; format: cell-based; details: 5 days, 0.5 μM, qPCR
Method: Mouse T cells were stimulated and expanded for 5 days in vitro in the presence of 0.5 μM p38 inhibitor. RNA extraction and qPCR analysis were performed to determine differences in gene expression.

[3] = test system: human healthy donor derived T cells and melanoma patient-derived T cells; assay: human T cells expanded 20-25 days with p38i: CD8+CD62L+ cells; format: cell-based; details: 0.5 uM p38i, vs vehicle
Method: The numbers of human healthy donor derived T cells and melanoma patient-derived T cells were expanded for 20-25 days in presence of 0.5 uM […]. The percentage of CD8+CD62L+ cells was measured.

[4] = test system: Mouse T cells; assay: SEAHORSE analysis of respiratory capacity; format: cell-based; details: 5 days, 0.5 μM
Method: Mouse T cells were stimulated and expanded for 5 days in vitro in the presence of 0.5 μM p38 inhibitor. SEAHORSE analysis was performed to determine spare respiratory capacity of cells.

[5] = test system: Subcutaneous tumor; assay: adoptive cell transfer of Pmel-1 T cells expanded ex vivo with p38 inhibitor into tumor-bearing mice; format: in vivo; details: mice receiving Pmel-1 T cells expanded ex vivo 10 days with p38 inhibitor
Method: Subcutaneous tumor growth was measured in mice receiving adoptive cell transfer of Pmel-1 T cells which were expanded ex vivo for 10 days in the presence of p38 inhibitor. Tumor area (FIG. 10G) and overall survival (FIG. 10H) are shown. Significance for tumor growth kinetics were calculated by Wilcoxon rank-sum test. Survival significance was assessed by a log-rank Mantel-Cox test (n=5 mice per treatment group).

[6] = test system: Mouse T cells; assay: cytokine production after brief anti-CD3/anti-CD28 stimulation; format: cell-based; details: 10 days, 0.5 μM
Method: Mouse T cells were stimulated and expanded for 10 days in vitro in the presence of 0.5 μM p38 inhibitor. Cells were briefly stimulated with anti-CD3/anti-CD28 in the presence of GOLGI-STOP protein transport inhibitor and GOLGI-PLUG protein transport inhibitor to determine the cytokine production ability of cells. As shown in FIGS. 10A-10C, IFN-gamma and IL-2 production increased following […] treatment. TNF alpha production decreased following […] treatment.

[7] = test system: Mouse T cells; assay: cellular and mitochondrial ROS by FACS; format: cell-based; details: 10 days, 0.5 μM
Method: Mouse T cells were stimulated and expanded for 10 days in vitro in the presence of 0.5 μM p38 inhibitor. Cellular and mitochondrial ROS levels were measured using FACS analysis.

[8] = test system: CD19 antigen expressing NALM6 cells; assay: specific cytolysis by anti-CD19 CAR human T cells expanded with p38i; format: cell-based; details: anti-CD19 CAR T cells from 2 healthy donors, expanded 20-25 days, overnight coculture with NALM6
Method: Human T cells from 2 healthy donors were transduced with a retrovirus encoding an anti-CD19 CAR and the numbers of cells were expanded for 20-25 days in the presence of […]. Specific cytolysis was measured. […] T cells and NALM6 cells were cocultured overnight.

[9] = test system: Human T cells; assay: IFN-gamma production by human T cells expanded with p38i; format: cell-based; details: human T cells expanded 20-25 days
Description: Human T cells were expanded for 20-25 days in the presence of […].

[10] = test system: Mouse T cells; assay: apoptosis during expansion by Annexin; format: cell-based; details: 4 days, 0.5 μM
Method: Mouse T cells were stimulated and the numbers of cells were expanded for 4 days in vitro in the presence of 0.5 μM p38 inhibitor. The levels of cells which underwent apoptosis were measured.

[11] = test system: Mouse T cells; assay: intracellular staining and FACS of phosphorylation of Akt and its substrates; format: cell-based; details: 5 days, 0.5 μM
Method: Mouse T cells were stimulated and the numbers of cells were expanded for 5 days in vitro in presence of 0.5 μM p38 inhibitor. Intracellular staining and FACS analysis was performed to measure phosphorylation of Akt and its substrates in T cells.

[12] = test system: Mouse T cells; assay: cell proliferation by dilution of CSFE proliferation dye; format: cell-based; details: hgp100 peptide or anti-CD3/CD28 stimulation, 4 days, 0.5 μM
Method: Mouse T cells were stimulated using either hgp100 peptide or anti-CD3/CD28 antibodies, and the numbers of cells were expanded for 4 days in vitro in the presence of 0.5 μM p38 inhibitor. Cell proliferation was measured.

[13] = test system: Mouse T cells; assay: metabolome analysis; format: cell-based; details: 5 days, 0.5 μM, vs vehicle
Method: Mouse T cells were stimulated and the numbers of cells were expanded for 5 days in vitro in the presence of 0.5 μM p38 inhibitor. […] FIG. 7B is a schematic illustrating glycolysis and the citric acid cycle.

With `Cc1ccc(-n2nc(C(C)(C)C)cc2NC(=O)Nc2ccc(OCCN3CCOCC3)c3ccccc23)cc1` [BIRB 796, doramapimod] the “DNA damage in cells (percentage of cells with high levels of gamma H2AX)” value [1] was “reduced”, the cell counts [1] was “increased” and the “percentage of CD62L+ cells” value [1] was “increased”. The “mRNA expression of Slc2a1” value [2] was “reduced”, the “mRNA expression of catalase” value [2] was “reduced” and the “percentage of CD8+CD62L+ cells” value ([3]; healthy donor T cells) was “increased”. For the same molecule, the “percentage of CD8+CD62L+ cells” value ([3]; melanoma patient T cells) was “increased”, the total oxygen consumption [4] was “increased” and the overall survival [5] was “promote survival”. The tumor area [5] was “enhanced the ability of the transferred cells to reduce tumor area”, the IFN-gamma production [6] was “increased” and the IL-2 production [6] was “increased”. For the same molecule, the TNF alpha production [6] was “decreased”, the “mitochondrial ROS” value [7] was “reduced” and the “total ROS” value [7] was “reduced”. The specific cytolysis [8] was “lysed in higher numbers”, the “ability to produce the effector cytokine IFN-gamma” value [9] was “enhanced ability” and the “cell death during expansion (apoptotic cell marker Annexin)” value [10] was “reduced cell death”. The “phosphorylation of Akt and its substrates” value [11] was “preserved memory-like characteristics of T cells independent of the Akt pathway”, the “cell proliferation (dilution of CSFE proliferation dye)” value [12] was “did not affect cell proliferation” and the alpha-ketoglutarate production [13] was “reduced”. The glucose production [13] was “reduced”, the lactate production [13] was “reduced” and the “production of 9-HODE/13-HODE” value [13] was “reduced”. For the same molecule, the “production of linoleate (18:2n6)” value [13] was “reduced”, the “production of oxidized GSSG” value [13] was “reduced” and the succinate production [13] was “reduced”.
